Laboratory results published in ChEMBL document CHEMBL1154854, “Synthesis and antioxidant properties of enone core based dendrimers with carbazole as surface group” (Eur J Med Chem, 2010).
≈ marks a conversion by molar mass, not a printed value. Calls of active or inactive are those of the source. No cut-off for these calls is given here.

Key:
[1] = tested on: Radical scavenging activity; test: Antioxidant activity assessed as DPPH radical scavenging activity after 30 mins by spectrometric assay method; format: functional
[2] = tested on: Radical scavenging activity; test: Antioxidant activity assessed as DPPH radical scavenging activity at 20 to 1000 ug/mL after 30 mins by spectrometric assay method; format: functional

| IC50 [1] [µg/mL] | Structure (SMILES) | Activity [2] | Activity [1] |
| --- | --- | --- | --- |
| 48 (≈ 15.6 µM) | O=C1/C(=C/c2ccc(OCc3cc(OCc4cc(OCc5ccc(-n6c7ccccc7c7ccccc76)cc5)cc(OCc5ccc(-n6c7ccccc7c7ccccc76)cc5)c4)cc(OCc4cc(OCc5ccc(-n6c7ccccc7c7ccccc76)cc5)cc(OCc5ccc(-n6c7ccccc7c7ccccc76)cc5)c4)c3)cc2)CCC/C1=C\c1ccc(OCc2cc(OCc3cc(OCc4ccc(-n5c6ccccc6c6ccccc65)cc4)cc(OCc4ccc(-n5c6ccccc6c6ccccc65)cc4)c3)cc(OCc3cc(OCc4ccc(-n5c6ccccc6c6ccccc65)cc4)cc(OCc4ccc(-n5c6ccccc6c6ccccc65)cc4)c3)c2)cc1 | Active |  |
|  | O=C1/C(=C/c2ccc(OCc3cc(OCc4ccc(-n5c6ccccc6c6ccccc65)cc4)cc(OCc4ccc(-n5c6ccccc6c6ccccc65)cc4)c3)cc2)CCC/C1=C\c1ccc(OCc2cc(OCc3ccc(-n4c5ccccc5c5ccccc54)cc3)cc(OCc3ccc(-n4c5ccccc5c5ccccc54)cc3)c2)cc1 |  | Dose-dependent effect |
| 25 (≈ 58 µM) | Cc1c(C)c2c(c(C)c1O)CC[C@@](C)(CCC[C@H](C)CCC[C@H](C)CCCC(C)C)O2 [ALPHA-TOCOPHEROL] |  |  |
| 48 (≈ 273 µM) | O=C1O[C@H]([C@@H](O)CO)C(O)=C1O [ASCORBIC ACID] |  |  |

| Structure (SMILES) | IC50 [1] [µg/mL] | Activity [2] | Activity [1] |
| --- | --- | --- | --- |
| COc1ccc(O)c(C(C)(C)C)c1.COc1ccc(O)cc1C(C)(C)C [BUTYLATED HYDROXYANISOLE] | 29 |  |  |
